According to ChEMBL document CHEMBL3885881, “DrugMatrix”:

Organism: Rattus norvegicus
Test: DrugMatrix - Regimen: Daily Repeat
Format: toxicity, organism-based, Sprague-Dawley
Design: regimen Daily Repeat, gender Male, age 6-8 weeks
Settings: in vivo, po, route oral GAVAGE, vehicle 100 % WATER; for ABSOLUTE BASOPHIL / ABSOLUTE EOSINOPHIL / ABSOLUTE LYMPHOCYTE / ABSOLUTE MONOCYTE / ABSOLUTE SEGMENTED NEUTROPHIL / BASOPHIL / EOSINOPHIL / ERYTHROCYTE COUNT / HEMATOCRIT / HEMOGLOBIN / LEUKOCYTE COUNT / LYMPHOCYTE / MEAN CORPUSCULAR HEMOGLOBIN / MEAN CORPUSCULAR HEMOGLOBIN CONCENTRATION / MEAN CORPUSCULAR VOLUME / MONOCYTE / NEUTROPHIL / NUCLEATED RED BLOOD CELLS: tissue Blood; for ALANINE AMINOTRANSFERASE / ALKALINE PHOSPHATASE / ASPARTATE AMINOTRANSFERASE / BLOOD UREA NITROGEN / CARBON DIOXIDE / CHLORIDE / CHOLESTEROL / CREATINE PHOSPHOKINASE / CREATININE / GLUCOSE / LACTATE DEHYDROGENASE / LIPASE / PHOSPHORUS / POTASSIUM / SODIUM / TOTAL BILIRUBIN / TOTAL PROTEIN / URIC ACID: tissue Plasma
[1] = 0 mg/kg, 72 h, dose level Control, time 3 day
[2] = 0 mg/kg, 120 h, dose level Control, time 5 day
[3] = 18 mg/kg, 72 h, dose level Low, time 3 day

For `CN(C)CCCN1c2ccccc2Sc2ccc(Cl)cc21` [CHLORPROMAZINE], the “ABSOLUTE BASOPHIL” value [1] was 0 CELLS/uL, the “ABSOLUTE EOSINOPHIL” value [1] was 108.67 CELLS/uL and the “ABSOLUTE LYMPHOCYTE” value [1] was 10696 CELLS/uL. For the same compound, the “ABSOLUTE MONOCYTE” value [1] was 216.67 CELLS/uL, the “ABSOLUTE SEGMENTED NEUTROPHIL” value [1] was 1045.33 CELLS/uL and the BASOPHIL [1] was 0%. The EOSINOPHIL [1] was 1%, the “ERYTHROCYTE COUNT” value [1] was 5.87 x10E6/uL and the HEMATOCRIT [1] was 38.5%. For the same compound, the HEMOGLOBIN [1] was 13.6 G/DL, the “LEUKOCYTE COUNT” value [1] was 12.07 x10E3/uL and the LYMPHOCYTE [1] was 88.33%. For the same compound, the “MEAN CORPUSCULAR HEMOGLOBIN” value [1] was 23.47 pg, the “MEAN CORPUSCULAR HEMOGLOBIN CONCENTRATION” value [1] was 35.7 G/DL and the “MEAN CORPUSCULAR VOLUME” value [1] was 65.63 fL. For the same compound, the MONOCYTE [1] was 2%, the NEUTROPHIL [1] was 8.67% and the “NUCLEATED RED BLOOD CELLS” value [1] was 0 /100WBC. For the same compound, the “ALANINE AMINOTRANSFERASE” value [1] was 60.67 u/L, the “ALKALINE PHOSPHATASE” value [1] was 377.67 u/L and the “ASPARTATE AMINOTRANSFERASE” value [1] was 85.33 u/L. The “BLOOD UREA NITROGEN” value [1] was 15 mg/dL, the “CARBON DIOXIDE” value [1] was 37 mmol/L and the CHLORIDE [1] was 97.67 MEQ/L. The CHOLESTEROL [1] was 70.67 mg/dL, the “CREATINE PHOSPHOKINASE” value [1] was 361.67 u/L and the CREATININE [1] was 0.18 mg/dL. For the same compound, the GLUCOSE [1] was 154 mg/dL, the “LACTATE DEHYDROGENASE” value [1] was 99 u/L and the LIPASE [1] was 12.67 u/L. For the same compound, the PHOSPHORUS [1] was 9.53 mg/dL, the POTASSIUM [1] was 5.55 MEQ/L and the SODIUM [1] was 143.1 MEQ/L. For the same compound, the “TOTAL BILIRUBIN” value [1] was 0.2 mg/dL, the “TOTAL PROTEIN” value [1] was 5.97 G/DL and the “URIC ACID” value [1] was 0.77 mg/dL. For the same compound, the “ABSOLUTE BASOPHIL” value [2] was 0 CELLS/uL, the “ABSOLUTE EOSINOPHIL” value [2] was 0 CELLS/uL and the “ABSOLUTE LYMPHOCYTE” value [2] was 9535 CELLS/uL. The “ABSOLUTE MONOCYTE” value [2] was 182 CELLS/uL, the “ABSOLUTE SEGMENTED NEUTROPHIL” value [2] was 783 CELLS/uL and the BASOPHIL [2] was 0%. For the same compound, the EOSINOPHIL [2] was 0%, the “ERYTHROCYTE COUNT” value [2] was 5.35 x10E6/uL and the HEMATOCRIT [2] was 34.17%. The HEMOGLOBIN [2] was 13.17 G/DL, the “LEUKOCYTE COUNT” value [2] was 10.5 x10E3/uL and the LYMPHOCYTE [2] was 89.67%. The “MEAN CORPUSCULAR HEMOGLOBIN” value [2] was 24.67 pg, the “MEAN CORPUSCULAR HEMOGLOBIN CONCENTRATION” value [2] was 38.57 G/DL and the “MEAN CORPUSCULAR VOLUME” value [2] was 63.9 fL. The MONOCYTE [2] was 1.67%, the NEUTROPHIL [2] was 8.67% and the “NUCLEATED RED BLOOD CELLS” value [2] was 0 /100WBC. The “ALANINE AMINOTRANSFERASE” value [2] was 46.67 u/L, the “ALKALINE PHOSPHATASE” value [2] was 343.67 u/L and the “ASPARTATE AMINOTRANSFERASE” value [2] was 71 u/L. For the same compound, the “BLOOD UREA NITROGEN” value [2] was 11.67 mg/dL, the “CARBON DIOXIDE” value [2] was 27 mmol/L and the CHLORIDE [2] was 105.33 MEQ/L. The CHOLESTEROL [2] was 70.67 mg/dL, the “CREATINE PHOSPHOKINASE” value [2] was 208.67 u/L and the CREATININE [2] was 0.1 mg/dL. The GLUCOSE [2] was 161.33 mg/dL, the “LACTATE DEHYDROGENASE” value [2] was 58 u/L and the LIPASE [2] was 9.33 u/L. It also gave a PHOSPHORUS [2] of 12.7 mg/dL, a POTASSIUM [2] of 5.59 MEQ/L and an SODIUM [2] of 147.1 MEQ/L. The “TOTAL BILIRUBIN” value [2] was 0.17 mg/dL, the “TOTAL PROTEIN” value [2] was 5.97 G/DL and the “URIC ACID” value [2] was 0.73 mg/dL. For the same compound, the “ABSOLUTE BASOPHIL” value [3] was 0 CELLS/uL, the “ABSOLUTE EOSINOPHIL” value [3] was 0 CELLS/uL and the “ABSOLUTE LYMPHOCYTE” value [3] was 8093.33 CELLS/uL. The “ABSOLUTE MONOCYTE” value [3] was 80.67 CELLS/uL, the “ABSOLUTE SEGMENTED NEUTROPHIL” value [3] was 392.67 CELLS/uL and the BASOPHIL [3] was 0%. For the same compound, the EOSINOPHIL [3] was 0%, the “ERYTHROCYTE COUNT” value [3] was 5.16 x10E6/uL and the HEMATOCRIT [3] was 34.47%. The HEMOGLOBIN [3] was 13.4 G/DL, the “LEUKOCYTE COUNT” value [3] was 8.57 x10E3/uL and the LYMPHOCYTE [3] was 94.33%. The “MEAN CORPUSCULAR HEMOGLOBIN” value [3] was 25.97 pg, the “MEAN CORPUSCULAR HEMOGLOBIN CONCENTRATION” value [3] was 38.87 G/DL and the “MEAN CORPUSCULAR VOLUME” value [3] was 66.8 fL. For the same compound, the MONOCYTE [3] was 1%, the NEUTROPHIL [3] was 4.67% and the “NUCLEATED RED BLOOD CELLS” value [3] was 0 /100WBC. The “ALANINE AMINOTRANSFERASE” value [3] was 60.67 u/L, the “ALKALINE PHOSPHATASE” value [3] was 286 u/L and the “ASPARTATE AMINOTRANSFERASE” value [3] was 101 u/L. The “BLOOD UREA NITROGEN” value [3] was 15 mg/dL, the “CARBON DIOXIDE” value [3] was 38 mmol/L and the CHLORIDE [3] was 98 MEQ/L. For the same compound, the CHOLESTEROL [3] was 65.67 mg/dL, the “CREATINE PHOSPHOKINASE” value [3] was 499.33 u/L and the CREATININE [3] was 0.32 mg/dL. The GLUCOSE [3] was 131 mg/dL, the “LACTATE DEHYDROGENASE” value [3] was 79 u/L and the LIPASE [3] was 10 u/L. It also gave a PHOSPHORUS [3] of 8.37 mg/dL, a POTASSIUM [3] of 5.57 MEQ/L and an SODIUM [3] of 142.3 MEQ/L. For the same compound, the “TOTAL BILIRUBIN” value [3] was 0.23 mg/dL and the “TOTAL PROTEIN” value [3] was 5.97 G/DL.
